Tested on: LPS-induced HaCaT cells
Experiment: Anti-inflammatory and soothing experiment: inflammatory factors secreted by LPS-induced HaCaT cells (ELISA)
Type: cell-based
Conditions: inclusion at volume ratio of 0.3% (dexamethasone 50 µg/mL) with 50 µg/ml LPS, 24 h, supernatant, Mean ± SD, n = 3
Description: In vitro stimuli can activate toll-like receptors (TLR-2 and TLR-4) on keratinocytes, leading to the activation of MAPK and NF-κB pathways. Then, the keratinocytes produce IL-1, IL-6, IL-8, TNF-α, and human HBD-2 (defensins), which induces inflammation and causes skin discomfort. The anti-inflammatory effects of the inclusions in Examples 1 to 9 and Comparative Examples 1 to 9 were evaluated by using LPS-induced HaCaT cells as an inflammatory cell model in vitro and detecting inflammatory factors IL-la, […], and TNF-α secreted in cell supernatant by an ELISA kit.
The HaCaT cells were inoculated into a 12-well plate with a density of 2.0-3.0×10^5 cells/well, and incubated in an incubator at a temperature of 37±1° C. and a humidity of 90±5%. After the incubation, the culture plate was taken out, and the original culture solution in the well was discarded. In the sample group, 1 mL of test samples with a volume ratio of 0.3% and 50 µg/ml of LPS culture solution were added to each well; in the model group, only 50 µg/mL of LPS culture solution were added; in the positive control group, 1 mL of dexamethasone ([…]) and LPS ([…]) culture solution was added, while in the blank negative control group, 1 mL of culture solution was only added for culturing 24 h. The supernatant was collected by centrifugation and stored at −80° C. Cytokines of IL-la, […], and TNF-α were determined by using the method described in the ELISA kit, and signals were detected at a wavelength of 450 nm. The content of inflammatory factors was shown in Table 6 by the secretion amount (pg) of IL-i1α, IL-1β, and TNF-α contained in each mL of the culture solution, and triplicate wells were set for each test.

C[C@@H]1C[C@H]2[C@@H]3CCC4=CC(=O)C=C[C@]4(C)[C@@]3(F)[C@@H](O)C[C@]2(C)[C@@]1(O)C(=O)CO [Dexamethasone, dexamethasone]
IL-1α secretion amount in culture solution (model group 63.29 ± 0.39): 36.30 ± 0.21 pg/mL | IL-1β secretion amount in culture solution (model group 66.29 ± 0.29): 24.67 ± 0.65 pg/mL | TNF-α secretion amount in culture solution (model group 92.33 ± 2.25): 77.27 ± 2.96 pg/mL
